Test results reported in patent US20120251628A1, “COMPOSITIONS AND METHODS FOR TREATMENT OF CANCER” (priority 2011, published 2012).

Columns and labels:
[1] = tested on: CT26 colon carcinoma cell line; assay: Histologic analysis (hematoxylin and eosin) of tumor tissues; format: in vivo, mice; conditions: 10 mg/kg intraperitoneal; 8, 24 and 48 hours after injection; with increasing exposure time; from the central part of the tumors
Description: Seven-week-old, female, specific-pathogen-free (BALB/c) white mice (weight: approximately 20 g) purchased from ORIENTBIO Inc. (Seoul Korea) were subcutaneously injected with 2×10^6 cells of the CT26 colon carcinoma cell line per mouse. When the tumor size reached 3 mm in diameter, the control group was injected with a phosphate buffered saline (PBS) solution with 5% dextrose while the experimental group was intraperitoneally injected with 100 μL of KML001 at a concentration of 10 mg/kg with 5% dextrose. At 8, 24 and 48 hours after injection, liver, spleen and tumor tissue samples were taken and placed into a 37% solution of formaldehyde for 24 hours. The tissues were inserted into paraffin and sectioned at 4 μm on a microtome (made by SLEE MAINZ GmbH in Germany) and the sections were placed on slides.

β-tubulin mRNA = assay: RT-PCR of tubulin mRNA from HUVECs; format: cell-based, Human; conditions: 5 uM, 10 uM and 20 uM, 24 hours and 48 hours after treatment
Description: (§1) To determine whether the level of tubulin gene expression is responsible for the change in amount of tubulin protein observed in Example 5, RT-PCR was performed. HUVECs (obtained from ATCC) were cultivated in F25 culture flasks containing F-12K (Sigma) medium supplemented with 10% FBS and endothelial cell growth supplement (ECGS, E2759, Sigma). After cultivation for 24 hours, the cells were treated with sodium meta arsenite at concentrations of 5 uM, 10 uM and 20 uM. […] Total RNA was extracted using Trizol (Invitrogen, USA) and alcohol precipitation. 1 ug of total RNA was used for reverse transcriptase and dT was used for cDNA synthesis. The primer for synthesized cDNA and α-tubulin (sense: 5′-ATTGTGCCTTCATGGTAGAC-3′ (SEQ ID NO. 1), antisense: 5′-TTCTGTCAGGTCAACATTCA-3′) (SEQ ID NO. 2), the primer for β-tubulin (sense: 5′-AACGACCTCGTCTCTGAGTA-3′ (SEQ ID NO. 3), antisense: 5′-AATTCTGAGGGAGAGGAAAG-3′) (SEQ ID NO. 4) and GAPDH primer set (sense: 5′-ACCACTTTGTCAAGCTCATT-3′ (SEQ ID NO. 5), antisense: 5′-AGTGAGGGTCTCTCTCTTCC-3′) (SEQ ID No. 6) were used for denaturation at 95° C. for four minutes. After the reactions at 23 cycles at 95° C. for 30 seconds, at 52° C. for 30 seconds and at 72° C. for 40 seconds, PCR was performed at 72° C. for four minutes. The PCR product was confirmed by 1.5% agarose gel electrophoresis.

α-tubulin mRNA = assay: RT-PCR of tubulin mRNA from HUVECs; format: cell-based, Human; conditions: 5 uM, 10 uM and 20 uM, 24 hours and 48 hours after treatment
Description: as §1

O=[As][O-].[Na+] [sodium meta arsenite]
scope of necrotic cell death in the tumor tissues [1]: observed to increase
β-tubulin mRNA level (β-tubulin mRNA): no change
α-tubulin mRNA levels (α-tubulin mRNA): no change
